Patent US20150209379A1, “TREATMENT OF PROSTATE CANCER AND HEMATOLOGIC NEOPLASMS” (THOMAS JEFFERSON UNIVERSITY, priority 2012, published 2015)

Biological target: T1, Stat5a (Homo sapiens, UniProt P42229)
T1 sequence (P42229 1-794): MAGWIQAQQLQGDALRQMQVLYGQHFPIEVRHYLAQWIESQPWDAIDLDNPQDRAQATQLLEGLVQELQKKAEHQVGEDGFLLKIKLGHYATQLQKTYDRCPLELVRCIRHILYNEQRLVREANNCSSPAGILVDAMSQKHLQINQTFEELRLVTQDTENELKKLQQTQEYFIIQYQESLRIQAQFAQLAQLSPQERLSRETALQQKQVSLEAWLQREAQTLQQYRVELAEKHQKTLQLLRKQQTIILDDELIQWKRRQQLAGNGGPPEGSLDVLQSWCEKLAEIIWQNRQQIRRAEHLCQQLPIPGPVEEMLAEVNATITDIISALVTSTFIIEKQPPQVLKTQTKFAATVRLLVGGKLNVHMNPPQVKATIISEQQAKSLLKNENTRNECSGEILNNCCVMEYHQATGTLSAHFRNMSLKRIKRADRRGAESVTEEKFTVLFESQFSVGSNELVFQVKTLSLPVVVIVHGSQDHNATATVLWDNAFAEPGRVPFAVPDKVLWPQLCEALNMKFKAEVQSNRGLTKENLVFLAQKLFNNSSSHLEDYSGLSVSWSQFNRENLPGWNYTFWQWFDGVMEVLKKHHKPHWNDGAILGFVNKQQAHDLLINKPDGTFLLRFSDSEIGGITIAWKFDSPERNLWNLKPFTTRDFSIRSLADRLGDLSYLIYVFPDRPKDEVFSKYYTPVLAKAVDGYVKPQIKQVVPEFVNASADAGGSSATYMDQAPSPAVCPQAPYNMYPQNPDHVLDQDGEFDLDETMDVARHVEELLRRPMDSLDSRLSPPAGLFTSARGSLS
Assay: Stat5a dimerization (FLAG-/MYC-tagged Stat5a co-immunoprecipitation) in PC-3 cells
Assay type: cell-based
Design: expressed in transfected cells; host or cells: PC-3 human prostate cancer cells
Settings: 2 hours pretreatment, then hPrl 10 nM 30 minutes
Description: (§1) FLAG-tagged Stat5a and MYC-tagged Stat5a were generated by standard molecular biology cloning techniques. Plasmid pCMV3-FLAG-Stat5a, pCMV3-MYC-Stat5a and pPr1R were co-transfected using FuGENE6 (Roche) into PC-3 cells (2 μg of each plasmid per 1×10^7 cells). The cells were starved for 20 hours, pretreated with test compound for 2 hours, then stimulated with hPrl (10 nM) in RPMI 1640 without serum for 30 minutes. The cell lysates were immunoprecipitated with 25 μl anti-FLAG M2 […] affinity gel (2 μg/ml, Sigma), anti-MYC pAb (1 μg/ml, Upstate) or normal rabbit serum (NRS). The primary antibodies were used in the immunoblottings at the following concentrations: anti-FLAG pAb (1:1000; Stratagene), anti-MYC mAb (1:1000; Sigma), anti-Stat5a/b mAb (1:250) (Transduction Laboratories) detected by horseradish peroxidase-conjugated secondary antibodies. The results are shown in FIG. 3A for Compound 1 and FIG. 3B for Compound 2.
Lanes 1, 2, 4, 6 and 8 represent cells stimulated with human prolactin (Prl) for 30 minutes which induces dimerization of Stat5. Two hours prior to Prl-stimulation, the cells had been treated with DMSO (lanes 1-4), the control compound C5 (lanes 7 and 8) and either Compound 1 (lanes 5 and 6 in FIG. 3A) or Compound 2 (lanes 5 and 6 in FIG. 3B). […] It should be noted the drug effect in this study was not due to cell apoptosis induction, as the treatment time was only 2 hours. Treatment of at least 48 hours is required for the compound to induce prostate cancer cell apoptosis.
as §1, with “and pPrlR” for “and pPr1R”, “hours, pre-treated” for “hours, pretreated”, “with NBPP” for “with test compound”, “2 h,” for “2 hours,”, “antibodies.” for “antibodies. The results are shown in FIG. 3A for Compound 1 and FIG. 3B for Compound 2.”
Lanes 1, 2, 4, 6 and 8 represent cells stimulated with human prolactin (Prl) for 30 minutes which induces dimerization of Stat5. Two hours prior to Prl-stimulation, the cells had been treated with DMSO (lanes 1-4), the control compound C5 (lanes 5 and 6) or NBPP (lanes 7 and 8) to test whether the Stat5a/b-inhibitor compound, NBPP, would be able to inhibit dimerization of StatS. […] It should be noted the drug effect in this study was not due to cell apoptosis induction, as the treatment time was only 2 hours. Treatment of at least 48 hours is required for the compound to induce prostate cancer cell apoptosis.
FLAG-tagged Stat5a and MYC-tagged Stat5a were generated by standard molecular biology cloning techniques.as follows. […] The primary antibodies were used in the immunoblottings at the following concentrations: anti-FLAG pAb (1:1000; Stratagene), anti-MYC mAb (1:1000; Sigma), anti-Stat5a/b mAb (1:250) (Transduction Laboratories) detected by horseradish peroxidase-conjugated secondary antibodies. […]

| Compound | effect on Stat5a dimerization |
| --- | --- |
| OC[C@H]1O[C@@H](n2cnc3c(N4CCc5ccccc5C4)ncnc32)[C@H](O)[C@@H]1O [Compound 1, (2R,3R,4S,5R)-2-(6-(3,4-Dihydroisoquinolin-2(1H)-yl)-9H-purin-9-yl)-5-(hydroxymethyl)tetrahydrofuran-3,4-diol] | effectively inhibited Stat5a dimerization |
| OC[C@H]1O[C@@H](n2ccc3c(NCc4ccccc4)ncnc32)[C@H](O)[C@@H]1O [NBPP, N-(phenylmethyl)-7-β-D-ribofuranosyl-7H-pyrrolo[2,3-d]pyrimidin-4-amine] | effectively inhibited Stat5a dimerization |
| OC[C@H]1O[C@@H](n2cnc3c(NNc4ccccc4)ncnc32)[C@H](O)[C@@H]1O [Compound 2, (2R,3S,4R,5R)-2-(hydroxymethyl)-5-(6-(2-phenylhydrazinyl)-9H-purin-9-yl)tetrahydrofuran-3,4-diol] | effectively inhibited Stat5a dimerization |
| OC[C@H]1O[C@@H](n2cnc3c(NCc4ccccc4)ncnc32)[C@H](O)[C@@H]1O [Compound N6BA, N^6-benzyladenosine] | effectively inhibited Stat5a dimerization |
